Measured values from patent EP0256125A1, “MEANS FOR PREVENTING MICROBIOLOGICAL OVERGROWING OF HARD SURFACE” (priority 1985, dated 1987).

Assays:
[1] = tested on: Acremonium charticola; assay: Fungicidal activity, inhibition of mycelium growth on wort agar; type: cell-based
From the text: (§1) Man prüfte die funguzide Aktivität von Zink-bis-(N-vi- nyloxyethyl)dithiocarbamat gegenüber den reinen Pilzkulturen: Gladosporium resinae, Cladosporium cladosporioides, Acremonium corvum, Acremonium charticola, Penicillium charlesii Smith, Walrotiela subiculesa, Geotrichum candidum Link, Oidium, Penicillium crysogenum. Die genannten Pilze wurden von den Oberflächen der Wände und Decken von Bierbrauereien und Werken für die Herstellung von alkoholfreien Getränken ausgeschieden.
(§2) […] In eine der Petri-Schalen wurde Nährboden mit 1 ml Azeton (Kontrolle) gegossen.
(§3) In 18 bis 20 Stunden nach dem Vergießen des Nährbodens in die Petri-Schalen führte man die Inokulation der reinen Pilzkultur durch, die vorher an einem Schräg-Würzeagar während 15 Tage gezüchtet wurden. Die Inkubation führte man bei einer Temperatur von 25 bis 27°C während 5 Tage durch. Danach wurde der Durchmesser der Pilzkolonien gemessen und der Prozentsatz der Hemmung des Wachstums des Myzeliums (S) nach der Abbott -Formel gezählt: [formula] worin dc Durchmesser der Pilzkolonien in Kontrolle ist, de =Durchmesser der Pilzkolonien in einer Schale mit dem Nährboden ist, der Zink-bis-(N-vinyloxyethyl)dithiocarbamat enthält.

[2] = tested on: Acremonium corvum; assay: as above; type: cell-based
From the text: as §1, §2, §3

[3] = tested on: Cladosporium cladosporioides; assay: as above; type: cell-based
From the text: as §1, §2, §3

[4] = tested on: Cladosporium resinae; assay: as above; type: cell-based
From the text: as §1, §2, §3

[5] = tested on: Geotrichum candidum Link; assay: as above; type: cell-based
From the text: as §1, §2, §3

[6] = tested on: Penicillium charlesii Smith; assay: as above; type: cell-based
From the text: as §1, §2, §3

[7] = tested on: Penicillium chrysogenum; assay: as above; type: cell-based
From the text: as §1, §2, §3

[8] = tested on: Walrotiela subiculesa; assay: as above; type: cell-based
From the text: as §1, §2, §3

[9] = tested on: Schimmelpilzen, die die Bewachsung von Oberflächen hervorrufen; assay: Fungicidal activity, summary over all tested fungi; type: cell-based; settings: day 5
From the text: as §1
Es wurden Lösungen des Zink-bis-(N-vinyloxyethyl)di- thiocarbamats im Azeton verschiedener Konzentration hergestellt, die so berechnet wurde, daß bei der Einführung vor 1 ml Lösung in 10 ml des geschmolzenen Würzeagars (45-50°C) die Konzentration des genannten Stoffes im Medium von 0,0015 bis 0,012% betrug. In eine der Petri-Schalen wurde Nährboden mit 1 ml Azeton (Kontrolle) gegossen.
as §3

[10] = tested on: p. Escherichiae; assay: Bactericidal activity, growth on agar medium; type: cell-based; settings: 37°C, 5 Tage
Procedure: (§4) Die bakterizide Aktivität des Kalium N-(vinyloxyethyl)-dithiocarbamats gegenüber den Bakterien, die von der Oberfläche von Wänden und Decken der Produktionsräume von Brauereien und Fabriken zur Herstellunq von alkoholfreien Getränken ausgeschieden wurden und die zu p.p.Bacillus, Micrococcus, Pseudomonas, Escherichiae gehören, wurde geprüft.
(§5) Es wurden wäßrige Lösungen des genannten Stoffes verschiedener Konzentration hergestellt, die so berechnet wurde, daß bei Einführung von 1 ml der Lösung in 25 ml geschmolzenen agarisierten Nährboden (45-50°C) die Konzentration des Stoffes im Nährboden von 0,003 bis 0,5% betrug. In 18 bis 24 Stunden wurde auf die Oberfläche des Nährbodens 0,1 ml der wäßrigen Suspension der eintägigen reinen Bakterienkulturen aufgetragen, die am Fleisch-Pepton-Agar gezüchtet wurden. Die Suspension wurde gleichmäßig verteilt. In Kontrollschalen wurden 0,1 ml Wasser auf der Oberfläche des Närhbodens verteilt.
(§6) Die Inkubation führte man bei einer Temperatur von 37°C während 5 Tage durch.
(§7) Die effektive Wirkung des Stoffes wurde nach dem Auftreten des Bakterienwachstums an der Oberfläche des Nährbodens bewertet.

[11] = tested on: p.Bacillus; assay: Bactericidal activity, growth on agar medium; type: cell-based; settings: 37°C, 5 Tage
Procedure: as §4, §5, §6, §7

[12] = tested on: p.Micrococcus; assay: Bactericidal activity, growth on agar medium; type: cell-based; settings: 37°C, 5 Tage
Procedure: as §4, §5, §6, §7

[13] = tested on: p.Pseudomonas; assay: Bactericidal activity, growth on agar medium; type: cell-based; settings: 37°C, 5 Tage
Procedure: as §4, §5, §6, §7

[14] = Storage stability (qualitative); type: physicochemical; settings: result in words
[15] = Solubility in solvents (qualitative)
[16] = Konzentration des Stoffes 0,01 %
[17] = Konzentration des Stoffes 0,1 % (0,10)
[18] = Konzentration des Stoffes 0,02 %
[19] = Konzentration des Stoffes 0,05 %
[20] = Konzentration des Stoffes 0,005 %

Kupfer bis-(N-vinyloxyethyl) dithiocarbamat
Hemmung des Myzeliums am 5. Tag des Wachstums, Acremonium charticola [1, 16]: 96%
Hemmung des Myzeliums am 5. Tag des Wachstums, Acremonium charticola [1, 17]: 100%
Hemmung des Myzeliums am 5. Tag des Wachstums, Acremonium charticola [1, 18]: 100%
Hemmung des Myzeliums am 5. Tag des Wachstums, Acremonium charticola [1, 19]: 100%
Hemmung des Myzeliums am 5. Tag des Wachstums, Acremonium charticola [1, 20]: 70%
Hemmung des Myzeliums am 5. Tag des Wachstums, Acremonium corvum [2, 16]: 100%
Hemmung des Myzeliums am 5. Tag des Wachstums, Acremonium corvum [2, 17]: 100%
Hemmung des Myzeliums am 5. Tag des Wachstums, Acremonium corvum [2, 18]: 100%
Hemmung des Myzeliums am 5. Tag des Wachstums, Acremonium corvum [2, 19]: 100%
Hemmung des Myzeliums am 5. Tag des Wachstums, Acremonium corvum [2, 20]: 100%
Hemmung des Myzeliums am 5. Tag des Wachstums, Cladosporium cladosporioides [3, 16]: 36%
Hemmung des Myzeliums am 5. Tag des Wachstums, Cladosporium cladosporioides [3, 17]: 100%
Hemmung des Myzeliums am 5. Tag des Wachstums, Cladosporium cladosporioides [3, 18]: 65%
Hemmung des Myzeliums am 5. Tag des Wachstums, Cladosporium cladosporioides [3, 19]: 80%
Hemmung des Myzeliums am 5. Tag des Wachstums, Cladosporium cladosporioides [3, 20]: 15%
Hemmung des Myzeliums am 5. Tag des Wachstums, Cladosporium resinae [4, 16]: 34%
Hemmung des Myzeliums am 5. Tag des Wachstums, Cladosporium resinae [4, 17]: 100%
Hemmung des Myzeliums am 5. Tag des Wachstums, Cladosporium resinae [4, 18]: 80%
Hemmung des Myzeliums am 5. Tag des Wachstums, Cladosporium resinae [4, 19]: 90%
Hemmung des Myzeliums am 5. Tag des Wachstums, Geotrichum candidum Link [5, 16]: 100%
Hemmung des Myzeliums am 5. Tag des Wachstums, Geotrichum candidum Link [5, 17]: 100%
Hemmung des Myzeliums am 5. Tag des Wachstums, Geotrichum candidum Link [5, 18]: 100%
Hemmung des Myzeliums am 5. Tag des Wachstums, Geotrichum candidum Link [5, 19]: 100%
Hemmung des Myzeliums am 5. Tag des Wachstums, Geotrichum candidum Link [5, 20]: 100%
Hemmung des Myzeliums am 5. Tag des Wachstums, Penicillium charlesii Smith [6, 16]: 30%
Hemmung des Myzeliums am 5. Tag des Wachstums, Penicillium charlesii Smith [6, 17]: 100%
Hemmung des Myzeliums am 5. Tag des Wachstums, Penicillium charlesii Smith [6, 18]: 80%
Hemmung des Myzeliums am 5. Tag des Wachstums, Penicillium charlesii Smith [6, 19]: 100%
Hemmung des Myzeliums am 5. Tag des Wachstums, Penicillium charlesii Smith [6, 20]: 15%
Hemmung des Myzeliums am 5. Tag des Wachstums, Penicillium chrysogenum [7, 16]: 25%
Hemmung des Myzeliums am 5. Tag des Wachstums, Penicillium chrysogenum [7, 17]: 100%
Hemmung des Myzeliums am 5. Tag des Wachstums, Penicillium chrysogenum [7, 18]: 36%
Hemmung des Myzeliums am 5. Tag des Wachstums, Penicillium chrysogenum [7, 19]: 70%
Hemmung des Myzeliums am 5. Tag des Wachstums, Penicillium chrysogenum [7, 20]: 10%
Hemmung des Myzeliums am 5. Tag des Wachstums, Walrotiela subiculesa [8, 16]: 0%
Hemmung des Myzeliums am 5. Tag des Wachstums, Walrotiela subiculesa [8, 17]: 100%
Hemmung des Myzeliums am 5. Tag des Wachstums, Walrotiela subiculesa [8, 18]: 10%
Hemmung des Myzeliums am 5. Tag des Wachstums, Walrotiela subiculesa [8, 19]: 37%
Hemmung des Myzeliums am 5. Tag des Wachstums, Walrotiela subiculesa [8, 20]: 0%
Konzentration, bei der die Entwicklung aller untersuchten Pilze vollständig gehemmt wurde [9]: 0,1%
Konzentration der Salze der N-(vinyloxyethyl)dithiocarbaminsäure (100%), die das Wachstum der Bakterien am 5. Tag des Wachstums hemmen, p. Escherichiae [10]: 0,15%
Konzentration der Salze der N-(vinyloxyethyl)dithiocarbaminsäure (100%), die das Wachstum der Bakterien am 5. Tag des Wachstums hemmen, p.Bacillus [11]: 0,15%
Konzentration der Salze der N-(vinyloxyethyl)dithiocarbaminsäure (100%), die das Wachstum der Bakterien am 5. Tag des Wachstums hemmen, p.Micrococcus [12]: 0,15%
Konzentration der Salze der N-(vinyloxyethyl)dithiocarbaminsäure (100%), die das Wachstum der Bakterien am 5. Tag des Wachstums hemmen, p.Pseudomonas [13]: 0,15%
Lagerbeständigkeit [14]: lagerbeständig
Löslichkeit im Alkohol ([15]; Alkohol (Ethylalkohol)): bearenzt löslich
Löslichkeit im Azeton ([15]; Azeton): bearenzt löslich
Löslichkeit im Diethylether ([15]; Diethylether): nicht löslich
Löslichkeit im Dimethylsulfoxid ([15]; Dimethylsulfoxid): gut löslich
Löslichkeit in Wasser ([15]; Wasser): bearenzt löslich
